Experimental data as given in PubChem BioAssay (NCI).
Several values for one entry are separate records, joined by “and”; a condition that tells them apart may be missing. Equal entries are not always repeated.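 1) Cells in 96-well plates. 2) Compound, 48 h, 5 concentrations. 3) Linear interpolation between surrounding doses. 4) Unreached endpoint = highest concentration. GI50 marks 50% less growth. Definition used: TGI = concentration required for complete inhibition of growth.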

Legend:
Assay in all cases: inhibition of tumour cell growth, NCI panel, 48 h
[1] = test system: IGROV1 ovarian
[2] = test system: LOX IMVI melanoma
[3] = test system: UACC-257 melanoma
[4] = test system: OVCAR-5 ovarian
[5] = test system: MALME-3M melanoma
[6] = test system: OVCAR-8 ovarian
[7] = test system: HOP-62 NSCLC
[8] = test system: EKVX NSCLC
[9] = test system: HT29 colon
[10] = test system: BT-549 breast

Row | Structure (SMILES) | GI50 [1] | TGI [1] | GI50 [2] | TGI [2] | GI50 [3] | TGI [3] | GI50 [4] | TGI [4] | GI50 [5] | TGI [5] | GI50 [6] | TGI [6] | GI50 [7] | TGI [7] | GI50 [8] | TGI [8] | GI50 [9] | TGI [9] | GI50 [10] | TGI [10]
1 | O=C(O)c1ccc2c(c1)CCCC(c1ccc(Cl)cc1Cl)=C2c1ccc(O[C@H]2CCN(CCCF)C2)cc1 | 13.8 µM | 35.6 µM | 11 µM | 26.1 µM | 14.1 µM | 30 µM | 17.4 µM | 32.1 µM | 14.7 µM | 35.4 µM | 13.5 µM | 33.7 µM | 15 µM | 33.6 µM | 10.7 µM | 25.3 µM | 11.9 µM | 28.1 µM | 10 µM | 22.9 µM
2 | C=CC(=O)Nc1cc2c(Nc3ccc(F)c(Cl)c3)ncnc2cc1OCCCN1CCOCC1 | 0.993 µM and 0.284 µM | 3.26 µM and 2.88 µM | 1.29 µM and 1.69 µM | 2.7 µM and 3.32 µM | 3.42 µM and 9.15 µM | 12.8 µM and > 10 µM | 0.879 µM and 5.82 µM | 16.3 µM and > 10 µM | 2.41 µM and 6.17 µM | 5.84 µM and > 10 µM | 1.77 µM and 2.54 µM | 6.67 µM and > 10 µM | 3.27 µM and > 5.63 µM | 13.9 µM and > 10 µM | 0.0262 µM and 0.0367 µM | 12.4 µM and > 10 µM | 1.64 µM and 2.26 µM | 3.48 µM and > 8.38 µM | 2.04 µM and 2.57 µM | 5.7 µM and > 7.88 µM
3 | COc1ccc2[nH]c(O)c(C(=Nc3ccc(N(C)C(=O)CN4CCN(C)CC4)cc3)c3ccccc3)c2c1 | 1.36 µM | 10.1 µM | 1.02 µM | 2.19 µM | 1.73 µM | 4.08 µM | 2.68 µM | 16.4 µM | 1.27 µM | 2.85 µM | 3.24 µM | 14 µM | 1.12 µM | 12.3 µM | 3.94 µM | 16.2 µM | 0.341 µM | 10.8 µM | 1.55 µM | 3.19 µM
4 | COc1ccc(N2C(=O)[C@H]3CC(C)c4c([nH]c5ccccc45)[C@H]3C2=O)cc1 (some centres undefined) | – | 85.9 µM | – | 63.8 µM | – | > 93.9 µM | – | > 85.6 µM | – | 33.9 µM | – | 55.9 µM | – | 16.3 µM | – | > 95 µM | – | 21 µM | – | > 80.7 µM
5 | O=C(O)C1CCCCC1C(=O)O.[NH-]C1CCC1.[NH2-].[Pt+2] (centres undefined) | 57.5 µM | > 100 µM | 6.35 µM | 23.3 µM | 15 µM | 36.6 µM | 18.3 µM | 34 µM | 18.6 µM | 38.6 µM | > 100 µM | > 100 µM | 77 µM | > 100 µM | 26.5 µM | 84.8 µM | 17.2 µM | 35.3 µM | 19.8 µM | 77.9 µM
6 | CCOC(=O)/C=C/C1=C(c2cccs2)c2ccccc2CC1 | 26.7 µM | 94.9 µM | 15.9 µM | 30 µM | 21.2 µM | 53.7 µM | 35.9 µM | > 100 µM | 24.8 µM | 69.7 µM | 30.5 µM | > 100 µM | 38 µM | > 100 µM | 27.8 µM | 86.7 µM | 24.4 µM | 65.3 µM | 24.2 µM | 54.3 µM
7 | COc1cc2ncnc(Nc3ccc(F)c(Cl)c3)c2cc1NC(=O)/C=C/CN1CCCCC1 | – | 2.96 µM and 2.07 µM | 1.75 µM and 1.69 µM | 3.27 µM and 3.24 µM | 1.66 µM and 1.79 µM | 3.39 µM and 3.51 µM | 1.19 µM and 1.17 µM | 8.45 µM and > 8.15 µM | 1.73 µM and 1.61 µM | 3.31 µM and 3.09 µM | 1.28 µM and 1.64 µM | 5.35 µM and > 6.21 µM | 2.11 µM and 3.02 µM | 5.65 µM and > 9.66 µM | 0.00274 µM | > 10 µM | 1.68 µM and 2.08 µM | 3.59 µM and > 7.79 µM | 2.49 µM and 2.56 µM | 8.32 µM and 9.98 µM
8 | Cc1sc2nc3c4ccccc4c(NCCCN(C)C)nn3c(=O)c2c1C | 5.3 µM | 24.6 µM | 2 µM | 6.85 µM | 2.22 µM | 4.79 µM | 14.2 µM | 28.5 µM | 1.97 µM | 4.96 µM | 11 µM | 27.9 µM | 12.3 µM | 25.3 µM | 15.7 µM | 35.8 µM | 1.52 µM | 3.36 µM | 11.7 µM | 26.9 µM
9 | COc1ccccc1/C=C/C(=O)c1ccccc1 | 2.2 µM | 8.7 µM | 2.06 µM | 5.07 µM | 13.8 µM | 27.4 µM | 18.9 µM | 36.5 µM | 15.4 µM | 31.6 µM | 11.2 µM | 28 µM | 18.8 µM | 37 µM | 11 µM | 28.5 µM | 5.73 µM | 26.9 µM | 10.2 µM | 23.9 µM
10 | Cc1cc2c(cc1Cl)SC1=NN(C)C(N(C)C)N1S2(=O)=O (centres undefined) | > 100 µM | > 100 µM | > 100 µM | > 100 µM | > 100 µM | > 100 µM | > 100 µM | > 100 µM | > 100 µM | > 100 µM | > 100 µM | > 100 µM | > 100 µM | > 100 µM | > 100 µM | > 100 µM | > 100 µM | > 100 µM | > 100 µM | > 100 µM
11 | COc1cc(/C=C2\C(=O)Nc3ccc(N(C)C)cc32)cc(OC)c1OC | 1.5 µM | 5.43 µM | 3.2 µM | 18.6 µM | 6.73 µM | > 100 µM | 5.86 µM | > 80.2 µM | 3.23 µM | > 30.2 µM | 4.46 µM | > 79.4 µM | 8.48 µM | 50.2 µM | 5.25 µM | > 100 µM | 2.11 µM | > 100 µM | 2.49 µM | 14.5 µM
12 | COc1cc(-c2cn(-c3ccc(Cl)c(Cl)c3)c(=O)n2C(C)=O)cc(OC)c1OC | 5.34 µM | 17.6 µM | 13.7 µM | 28 µM | 7.51 µM | 23.2 µM | 13 µM | 27.3 µM | 15.3 µM | 33.3 µM | 8.49 µM | 31.9 µM | 7.48 µM | 21.1 µM | 2.6 µM | 8.26 µM | 6.32 µM | 21.8 µM | 10.7 µM | 22.7 µM
